Assay results published in publication PMC9328939, “A Randomized Double‐Blind Placebo‐Controlled First‐In‐Human Phase 1 Trial of TransCon PTH in Healthy Adults” (Journal of Bone and Mineral Research, 2020).

Legend:
[1] = test system: healthy adults; assay: Pharmacodynamics: albumin-adjusted serum calcium (sCa); type: in vivo, human
Procedure: (§2) Subjects attended a screening visit; those who met eligibility criteria were randomly assigned to a SAD or MAD cohort (n = 10/cohort; eight active and two placebo) and received a single or multiple dose(s) of TransCon PTH, respectively, via a syringe and 31G 8‐mm needle s.c. to the abdomen. […] Multiple TransCon PTH doses administered daily for 10 days ranged from 3.5 to 24 μg PTH(1‐34)/day. Throughout drug administration and for 4 days following the final dose, subjects remained housed for laboratory tests and safety monitoring.
(§3) The PD endpoints included albumin‐adjusted sCa, fractional excretion of calcium, sP, renal tubular maximum reabsorption of phosphate/glomerular filtration rate (TMP/GFR), intact endogenous PTH(1‐84), osteoblastic bone formation markers (serum bone‐specific alkaline phosphatase [BSAP] and P1NP), osteoclastic bone resorption markers (urine NTx and serum CTx), sMg, and 1,25‐dihydroxyvitamin D. PK samples were collected predose and at regular intervals postdose through 96 hours for the SAD cohorts and through day14 for the MAD cohorts.
Safety and PD samples were collected and analyzed by a local laboratory (SydPath Clinical Trials, Darlinghurst, Australia).

[2] = test system: healthy adults; assay: Pharmacodynamics: serum phosphate (sP); type: in vivo, human; conditions: MAD cohorts, near steady-state (days 8 to 10); linear regression on dose, p = .0430
Procedure: (§1) All statistical analyses were performed using SAS 9.3 or higher (SAS Institute, Inc., Cary, NC, USA). Summary statistics were reported for continuous data, including mean, standard deviation, standard error, median, minimum, and maximum, whereas number and percentage of subjects within treatment groups were reported for categorical data. For sP and TMP/GFR, a linear regression model was performed for the change from baseline, with dose and baseline as independent variables at near steady‐state. Near steady‐state was defined as the average of predose values on day 8, 9, and 10. Dose was defined as a continuous variable where placebo was considered zero.

[3] = test system: healthy adults; assay: Pharmacodynamics: renal tubular maximum reabsorption of phosphate/GFR (TMP/GFR); type: in vivo, human; conditions: MAD cohorts, near steady-state (days 8 to 10); linear regression on dose, p = .0022
Procedure: The ratio, TMP/GFR is based on sP, urine phosphate (uP), serum creatinine (sCr), and urine creatinine (uCr) and was calculated as follows[18]: (2) TMP/GFR=sP–uPxsCr/uCr
as §1

[4] = test system: healthy adults; assay: Pharmacodynamics: suppression of intact endogenous PTH(1-84); type: in vivo, human
Procedure: as §3

[5] = test system: healthy adults; assay: Pharmacodynamics: bone turnover markers (serum BSAP, P1NP, CTx; urine NTx); type: in vivo, human; conditions: MAD
Procedure: as §3

[6] = test system: healthy adults; conditions: in vivo
Procedure: as §2
At screening, demographic information, medical history, and concomitant medications, vital signs with height and weight, hematology, blood chemistry (including sCa, sP, and sMg), intact endogenous PTH(1‐84), 1,25‐dihydroxyvitamin D, and urine samples were collected. In addition, a limited physical examination and electrocardiogram (ECG) were performed.
Via regular vital sign checks, physical examinations, and safety laboratory tests, subjects were also monitored for adverse events (AEs) throughout the trial, including injection site reactions (erythema, ecchymosis, edema, pruritus, and pain).

TransCon PTH: long-acting, essentially inactive prodrug: PTH(1-34) transiently bound to an inert 40 kDa mPEG carrier via a proprietary autocleaving linker
albumin-adjusted sCa on day 11 ([1]; MAD, 24 μg PTH(1-34)/day x 10 days, n = 8, mean (± SD as printed), baseline 9.60 ± 0.06): 10.63 ± 0.22 mg/dL | albumin-adjusted sCa on day 2 ([1]; SAD, single s.c. 124 μg PTH(1-34), n = 8, mean ± SD as printed, baseline 9.43 ± 0.09): 10.97 ± 0.20 mg/dL | change in serum phosphate (sP) from baseline [2]: significant dose‐dependent decrease | change in TMP/GFR from baseline [3]: significant dose‐dependent decrease | intact endogenous PTH(1-84) ([4]; MAD cohorts, daily doses x 10 days): dose‐dependent suppression | intact endogenous PTH(1-84) ([4]; SAD cohorts, data not shown): dose‐dependent suppression | serum BSAP (osteoblastic bone formation marker) ([5]; 10 days of administration, compared to placebo): neither the osteoblastic bone formation marker, BSAP (Fig. 8) or P1NP (data not shown), increased | P1NP (osteoblastic bone formation marker) ([5]; 10 days of administration, compared to placebo, data not shown): neither the osteoblastic bone formation marker, BSAP (Fig. 8) or P1NP (data not shown), increased | time course of serum CTx levels ([5]; Free PTH at steady-state until at least day 11): declined from day 8 to baseline by day 13 | serum CTx (osteoclastic bone resorption marker) ([5]; over 10 days of administration, compared to placebo): increased modestly | urine NTx (osteoclastic bone resorption marker) ([5]; over 10 days, data not shown): no consistent increase | treatment-emergent AE: upper respiratory tract infections [6]: 6%
